The results in this text go back to patent US20070112175A1, “Determining drug resistance” (Children's Cancer Institute Australia for Medical Research, priority 2003, published 2007).

The subject of test [1] is NIH3T3 mutant γ-actin transfectant cells. The test can be described thus: Drug treatment and α-tubulin immunofluorescence of microtubules. It counts as cell-based, mouse. The conditions noted are these: 10 μM, 30 min. The procedure:
NIH3T3 mutant γ-actin transfectant cells were grown to ˜80% confluency in 4-well chamber slides (Nalge Nunc International, Naperville, Ill.) and treated with either 0.5% DMSO (vehicle control), 10 μM VLB, or 10 μM dEpoB, for 30 min, prior to immunostaining for total α-tubulin using standard methods. Epifluorescence imaging was performed using a Zeiss Axioscope 100 linked to a cooled CCD camera.

In another test the test system is CEM/VLB100 cells. Briefly: Resistance of vinblastine-selected subline CEM/VLB100. The class given is cell-based, Human. The conditions noted are these: CEM/VLB100 subline of CCRF-CEM. From the text:
(§1) Human T-cell acute lymphoblastic leukaemia cells, CCRF-CEM, and drug resistant sublines, CEM/VCR R (vincristine-selected) and CEM/VLB100 (vinblastine-selected), and CEM/dEpoB 1×, CEM/dEpoB 2×, CEM/dEpoB 4×, CEM/dEpoB 10×(desoxyepothilone B-selected), were maintained in RPMI 1640 containing 10% FCS as suspension cultures. The CEM/VCRR are 22,600-fold and CEM/VLB100 are 6,667-fold resistant to vincristine and vinblastine respectively. Cells were harvested for protein analysis by centrifugation at 1500 rpm for 5 min.

For test [2], the system named is NIH3T3 mutant γ-actin transfectant cells. The test can be described thus: Drug resistance clonogenic assay. The class given is cell-based, mouse. The conditions noted are these: P<0.05. The procedure: DNA (1 μg) was transfected into subconfluent NIH3T3 mouse fibroblast cells using the Fugene (Roche) transfection reagent according to the manufacturer's instructions. Stable transfectants were selected in 1 mgm1^−1 G418 for 16 days. Levels of γ-actin expression were determined by immunoblotting as described above.
The ability of mutant γ-actin to confer resistance to antimicrotubule agents was determined using clonogenic assays with slight modifications. NIH3T3 mutant γ-actin transfectant cells were seeded at 100 cells/well in replicate wells of a 24-well dish containing increasing concentrations of VLB. The media was replaced after 3 days with drug-free DME/10%FCS. After a further 4 days the media was removed and colonies stained with 0.1% crystal violet. The densitometric volume of each well was determined using the Quantity One software package (Biorad) and expressed relative to the respective drug-free control cells. The concentration that kills 50% of cells (ID50) and statistical analyses were then performed. The relative resistance was determined by dividing the ID50 of each γ-actin transfectant cell line with the ID50 of the empty vector cells.

The test system of a further test is CEM/VCR R cells. Briefly: Resistance of vincristine-selected subline CEM/VCR R. The class given is cell-based, Human. Particulars: CEM/VCR R subline of CCRF-CEM.
Text: as §1

Where [3] appears, read: empty vector and wild type γ-actin expressing cells.

In the case of `C/C1=C/C[C@@H](/C(C)=C/c2csc(C)n2)OC(=O)C[C@H](O)C(C)(C)C(=O)[C@H](C)[C@@H](O)[C@@H](C)CCC1` [dEpoB, Desoxyepothilone B], the “effect on cell shape and microtubule network” value was “marked structural changes” in test [1] (setting [3]) and “microtubule network remains largely intact” in test [1] (mutant γ-actin transfectants).

In the case of `CC[C@]1(O)C[C@@H]2CN(CCc3c([nH]c4ccccc34)[C@@](C(=O)OC)(c3cc4c(cc3OC)N(C)[C@H]3[C@@](O)(C(=O)OC)[C@H](OC(C)=O)[C@]5(CC)C=CCN6CC[C@]43[C@@H]65)C2)C1` [vinblastine], the “fold resistant to vinblastine” value in the test with CEM/VLB100 cells was 6,667 fold. Moreover, the “relative resistance (ID50 transfectant / ID50 empty vector)” value in test [2] (P98L γ-actin mutant vs empty vector and wildtype γ-actin cells) was “over 3 fold”; in test [2] (V103L γ-actin mutant vs empty vector and wildtype γ-actin cells) it was “over 2 fold”. Moreover, the “effect on cell shape and microtubule network” value in test [1] (setting [3]) is “marked structural changes”; in test [1] (mutant γ-actin transfectants), “microtubule network remains largely intact”.

For `CC[C@]1(O)C[C@H]2CN(CCc3c([nH]c4ccccc34)[C@@](C(=O)OC)(c3cc4c(cc3OC)N(C=O)[C@H]3[C@@](O)(C(=O)OC)[C@H](OC(C)=O)[C@]5(CC)C=CCN6CC[C@]43[C@@H]65)C2)C1` [vincristine], in the test with CEM/VCR R cells, the “fold resistant to vincristine” value is 22,600 fold.
